Holding throughout (assay type): cell-based, Propionibacterium acnes
The test system of assay [1] is HL053PA1 strain (RT4). Nature of the assay: MIC by broth microdilution method, HL053PA1 strain. Conditions: Cutibacterium acnes, read-out: MIC against acne bacterium strain HL053PA1 strain (RT4). How it is done: (§1) An MIC is measured herein according to the broth microdilution method which is the standard method of Japanese Society of Chemotherapy.
(§2) The antibacterial activity of a test substance was determined based on the minimum inhibitory concentration (MIC). An MIC was measured according to the broth microdilution method which is the standard method of Japanese Society of Chemotherapy.
(§3) One-loopful of each acne bacterium strain listed in Table 1 was scraped off and inoculated into 5 mL of a GAM broth slant agar medium (pH 7.0, Nissui Pharmaceutical Co., Ltd.).
The inoculated acne bacterium strain was precultured at 37° C. in a nitrogen atmosphere (anaerobic condition) for 48 hours. The precultured microbial cells were diluted in a modified GAM broth liquid medium (pH 6.0) to a concentration of 5.0×10^4 cfu/mL (viable cell count per OD660=1 is 2.0×10^9 cfu/mL), to prepare strain suspensions.
(§4) Each fatty acid (Tokyo Chemical Industry Co., Ltd.) listed in Table 2 was dissolved in dimethylsulfoxide (DMSO) as a solvent such that the concentration became 10,000 μg/mL, and used as a test substance.
(§5) Each of strain suspensions (5.0×10^4 cfu/mL) was aliquoted in a 96-well round bottom microplate, each of the test substance (fatty acid concentration 10,000 μg/mL) was added at a 1/10 volume to the aliquot and mixed to prepare measurement samples (fatty acid concentration: 1,000 μg/mL). Measurement samples in 2-fold dilution series were prepared using the strain suspension (fatty acid concentration from 0.48 to 1,000 μg/mL).
[…] The presence or absence of a precipitation of test microbial cells after the incubation was examined and the minimum concentration at which the precipitation of microbial cells […] was regarded as the MIC (μg/mL) of the test substance against the acne bacterium strain.
For orientation: In broth dilution the organism is exposed to a series of concentrations in liquid medium.

For assay [2], the system named is HL043PA1 strain (RT5). Nature of the assay: MIC by broth microdilution method, HL043PA1 strain. Conditions: Cutibacterium acnes, read-out: MIC against acne bacterium strain HL043PA1 strain (RT5). How it is done:
as §1, §2, §3
The inoculated acne bacterium strain was precultured at 37° C. in a nitrogen atmosphere (anaerobic condition) for 48 hours. […]
as §4, §5
The measurement samples were incubated under an anaerobic condition at 37° C. for 2 days. The presence or absence of a precipitation of test microbial cells after the incubation was examined and the minimum concentration at which the precipitation of microbial cells […] was regarded as the MIC (μg/mL) of the test substance against the acne bacterium strain.

Assay [3] concerns HL053PA1 strain (RT4) and HL043PA1 strain (RT5) versus HL110PA3 strain (RT6). In words: Strain-selective antibacterial activity (average of MICRT6/MICRT4 and MICRT6/MICRT5). An excerpt:
Herein, “acne strain-selective antibacterial activity” or “strain-selective antibacterial activity” means an index indicating better inhibition of growth of a dominant strain in acne patients compared to that of a dominant strain in healthy subjects. It is expressed by the average value of the values (MICRT6/MICRT4, and MICRT6/MICRTS) obtained by dividing the minimum inhibitory concentration (MIC) of an object substance with respect to the dominant strain in healthy subjects (RT6 strain) (MICRT6) respectively by the MIC of the object substance with respect to the dominant strain in acne patients (RT4 strain) (MICRT4), and by the MIC of the object substance with respect to the dominant strain in acne patients (RT5 strain) (MICRT5).
The strain-selective antibacterial activity of each test substance (Table 2, right-most column) was evaluated based on the following rating criteria (Table 3). When the strain-selective antibacterial activity is indicated by a numerical range, the rating was based on the minimum value thereof.

Assay [4] has as its system HL110PA3 strain (RT6). Nature of the assay: MIC by broth microdilution method, HL110PA3 strain. The conditions noted are these: Cutibacterium acnes, read-out: MIC against acne bacterium strain HL110PA3 strain (RT6).
Setting [5] is: control antibiotics, Comparative Example 2, method as Example 1.
The mark [6] stands for this setting: control antibiotics, Comparative Example 2, for LOD calculated using 0.48 ng/mL as MIC of the RT6 strain.
The mark [7] stands for this setting: control antibiotics, Comparative Example 2, method as Example 1, LOD = MIC <0.48 ng/mL.
Where [8] appears, read: control antibacterial agents, Comparative Example 1, method as Example 1.
Where [9] appears, read: control antibacterial agents, Comparative Example 1.

Values after ≈ are worked out from the molar mass of the structure shown. Where two headings read alike, the source gives them in different places. Where only a bound is given, the exact number is not on record here.

Regarding `CC1CCc2c(N3CCC(O)CC3)c(F)cc3c(=O)c(C(=O)O)cn1c23` (stereo not drawn) [Nadifloxacin, reference compound], the MIC in assay [1] (setting [5]) was 0.031 µg/mL (≈ 0.086 µM); in assay [2] (setting [5]), 0.031 µg/mL (≈ 0.086 µM); in assay [4] (setting [7]) it was below 0.00048 µg/mL. Further, in assay [3] (setting [6]), the Strain-selective antibacterial activity is <1.5 × 10^−2.
`CC(C)c1cccc(=O)c(O)c1` [Hinokitiol, reference compound]: the minimum inhibitory concentration (MIC) in assay [1] (setting [8]), in assay [2] (setting [8]) and in assay [4] (setting [8]) was 31.3 µg/mL (≈ 191 µM) each time. In assay [3] (setting [9]), this molecule yielded a Strain-selective antibacterial activity of 1.0.
For the molecule `C[C@H]1c2cccc(O)c2C(=O)C2=C(O)[C@]3(O)C(=O)C(C(N)=O)=C(O)[C@@H](N(C)C)[C@@H]3[C@@H](O)[C@@H]21` [Doxycycline, reference compound], the MIC is 0.98 µg/mL (≈ 2.21 µM) in assay [1] (setting [5]), 2 µg/mL (≈ 4.5 µM) in assay [2] (setting [5]) and 0.00048 µg/mL (≈ 0.00108 µM) in assay [4] (setting [7]). For the same molecule, the Strain-selective antibacterial activity in assay [3] (setting [6]) is on record as 3.6 × 10^−4.
In the case of `CCC[C@@H]1C[C@@H](C(=O)N[C@@H]([C@H]2O[C@H](SC)[C@H](O)[C@@H](O)[C@H]2O)[C@H](C)Cl)N(C)C1` [Clindamycin, reference compound], the MIC is 31 µg/mL (≈ 72.9 µM) in assay [1] (setting [5]), 63 µg/mL (≈ 148 µM) in assay [2] (setting [5]) and 0.031 µg/mL (≈ 0.0729 µM) in assay [4] (setting [7]). In addition, in assay [3] (setting [6]), the Strain-selective antibacterial activity is listed as 7.5 × 10^−4.
On to `CCO` [Ethanol, reference compound], for which the minimum inhibitory concentration (MIC) in assay [1] (setting [8]) was above 1000 µg/mL; in assay [2] (setting [8]), 500 µg/mL (≈ 10900 µM); in assay [4] (setting [8]) it was 500 µg/mL (≈ 10900 µM). In assay [3] (setting [9]), the Strain-selective antibacterial activity was below 0.75.
For `CN(C)c1ccc(O)c2c1C[C@H]1C[C@H]3[C@H](N(C)C)C(O)=C(C(N)=O)C(=O)[C@@]3(O)C(O)=C1C2=O` [Minocycline, reference compound], the MIC is 0.24 µg/mL (≈ 0.525 µM) in assay [1] (setting [5]), 0.49 µg/mL (≈ 1.07 µM) in assay [2] (setting [5]) and below 0.00048 µg/mL in assay [4] (setting [7]). Also, the Strain-selective antibacterial activity in assay [3] (setting [6]) was <1.5 × 10^−3.
Take `CC[C@H]1OC(=O)[C@H](C)[C@@H](O[C@H]2C[C@@](C)(OC)[C@@H](O)[C@H](C)O2)[C@H](C)[C@@H](O[C@@H]2O[C@H](C)C[C@H](N(C)C)[C@H]2O)[C@](C)(O)C[C@@H](C)/C(=N\OCOCCOC)[C@H](C)[C@@H](O)[C@]1(C)O` [Roxithromycin, reference compound]: the values for the MIC in assay [1] (setting [5]), in assay [2] (setting [5]) and in assay [4] (setting [7]) were 500 µg/mL (≈ 597 µM), 1000 µg/mL (≈ 1190 µM) and 0.0038 µg/mL (≈ 0.00454 µM), respectively.

As usually defined, the MIC is the least concentration at which growth counts as inhibited.
